Assay results published in patent US10219516B2, “Molecules having pesticidal utility, and intermediates, compositions, and processes, related thereto” (priority 2015, dated 2019).

Key:
Format in all cases: in vivo
[1] = test system: Yellow Fever Mosquito (Aedes aegypti, AEDSAE); assay: Bioassay on Yellow Fever Mosquito (YFM), 96-well plate larval assay; conditions: Species YFM (Yellow Fever Mosquito)
Outline: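 Aedes aegypti larvae (about 1 day old) in liver-powder water were added to plates dispensed from DMSO master plates (4000 ppm stock) diluted with 90:10 water/acetone; six replicate plates per master. Lidded plates were held at room temperature for 3 days, then each well was scored for mortality.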

[2] = test system: Cabbage Looper (Trichoplusia ni, TRIPNI); assay: Bioassay on Cabbage Looper (CL), 128-well diet tray assay; conditions: Trichoplusia ni; Species CL (Cabbage Looper); read-out: CL (Biological Results, rating)
Outline: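 Mortality of second instar larvae exposed to diet coated with 50 μg/cm^2 compound (acetone-water 90:10 vehicle, dried); 25° C., 5–7 days.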

[3] = test system: Beet Armyworm (Spodoptera exigua, LAPHEG); assay: Bioassay on Beet Armyworm (BAW), 128-well diet tray assay; conditions: Species BAW (Beet Armyworm), read-out: BAW (Biological Results, rating)
Outline: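 Test molecule dissolved in acetone-water 90:10 is applied at 50 μg/cm^2 onto artificial diet and allowed to dry. Second instar larvae, one to five per well, are then added, and trays are vented and kept at 25° C. for five to seven days before mortality is scored.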

In the case of `COc1c(Cl)cc([C@H]2[C@H](C(=O)Nc3ccc(Cl)c(C(=O)Nc4ccc(F)cc4F)c3)C2(Cl)Cl)cc1Cl` (relative stereo) [F180, trans-2-Chloro-5-(2,2-dichloro-3-(3,5-dichloro-4-methoxyphenyl)cyclopropane-1-carboxamido)-N-(2,4-difluorophenyl)benzamide], the “YFM (Biological Results, rating)” value [1] is reported as “A (80-100)”, the pest or weed control at 50 µg/cm2 [2] is reported as 50 to 100% and the pest or weed control at 50 µg/cm2 [3] is reported as 50 to 100%.

For `N#Cc1cc(F)ccc1NC(=O)c1cc(NC(=O)[C@H]2[C@H](c3ccc(Cl)c(Cl)c3)C2(Cl)Cl)ccc1Cl` (relative stereo) [F190, trans-2-Chloro-N-(2-cyano-4-fluorophenyl)-5-(2,2-dichloro-3-(3,4-dichlorophenyl)cyclopropane-1-carboxamido)benzamide], the “YFM (Biological Results, rating)” value [1] was “A (80-100)”, the pest or weed control at 50 µg/cm2 [2] was 50 to 100% and the pest or weed control at 50 µg/cm2 [3] was 50 to 100%.

For `O=C(Nc1ccc(I)cc1)c1cc(NC(=O)[C@H]2[C@H](c3cc(Cl)cc(Cl)c3)C2(Cl)Cl)ccc1Cl` (relative stereo) [F193, trans-2-Chloro-5-(2,2-dichloro-3-(3,5-dichlorophenyl)cyclopropane-1-carboxamido)-N-(4-iodophenyl)benzamide], the “YFM (Biological Results, rating)” value [1] was “B (More than 0-Less than 80)”, the pest or weed control at 50 µg/cm2 [2] was 50 to 100% and the pest or weed control at 50 µg/cm2 [3] was 50 to 100%.

`O=C(Nc1cccc(I)c1)c1cc(NC(=O)[C@H]2[C@H](c3cc(Cl)cc(Cl)c3)C2(Cl)Cl)ccc1Cl` (relative stereo) [F194, trans-2-Chloro-5-(2,2-dichloro-3-(3,5-dichlorophenyl)cyclopropane-1-carboxamido)-N-(3-iodophenyl)benzamide] was tested, and the “YFM (Biological Results, rating)” value [1] was “B (More than 0-Less than 80)”, the pest or weed control at 50 µg/cm2 [2] was 50 to 100% and the pest or weed control at 50 µg/cm2 [3] was 50 to 100%.

`Cc1cc(N)ccc1NC(=O)c1cc(NC(=O)[C@H]2[C@H](c3cc(Cl)cc(Cl)c3)C2(Cl)Cl)ccc1Cl` (relative stereo) [F195, trans-N-(4-Amino-2-methylphenyl)-2-chloro-5-(2,2-dichloro-3-(3,5-dichlorophenyl)cyclopropane-1-carboxamido)benzamide] was tested, and the “YFM (Biological Results, rating)” value [1] was “A (80-100)”, the pest or weed control at 50 µg/cm2 [2] was 50 to 100% and the pest or weed control at 50 µg/cm2 [3] was 50 to 100%.

With `CNc1ccc(NC(=O)c2cc(NC(=O)[C@H]3[C@H](c4cc(Cl)cc(Cl)c4)C3(Cl)Cl)ccc2Cl)c(C)c1` (relative stereo) [F196, trans-2-Chloro-5-(2,2-dichloro-3-(3,5-dichlorophenyl)cyclopropane-1-carboxamido)-N-(2-methyl-4-(methylamino)phenyl)benzamide] the “YFM (Biological Results, rating)” value [1] was “A (80-100)”, the pest or weed control at 50 µg/cm2 [2] was 50 to 100% and the pest or weed control at 50 µg/cm2 [3] was 50 to 100%.

For `COc1ccc(NC(=O)c2cc(NC(=O)[C@H]3[C@H](c4cc(Cl)cc(Cl)c4)C3(Cl)Cl)ccc2Cl)cc1N` (relative stereo) [F199, trans-N-(3-Amino-4-methoxyphenyl)-2-chloro-5-(2,2-dichloro-3-(3,5-dichlorophenyl)cyclopropane-1-carboxamido)benzamide], the “YFM (Biological Results, rating)” value [1] was “A (80-100)”, the pest or weed control at 50 µg/cm2 [2] was 50 to 100% and the pest or weed control at 50 µg/cm2 [3] was 50 to 100%.

In the case of `CNc1cc(NC(=O)c2cc(NC(=O)[C@H]3[C@H](c4cc(Cl)cc(Cl)c4)C3(Cl)Cl)ccc2Cl)ccc1OC` (relative stereo) [F200, trans-2-Chloro-5-(2,2-dichloro-3-(3,5-dichlorophenyl)cyclopropane-1-carboxamido)-N-(4-methoxy-3-(methylamino)phenyl)benzamide], the “YFM (Biological Results, rating)” value [1] is reported as “B (More than 0-Less than 80)”, the pest or weed control at 50 µg/cm2 [2] is reported as 50 to 100% and the pest or weed control at 50 µg/cm2 [3] is reported as 50 to 100%.

`Nc1cccc(NC(=O)c2cc(NC(=O)[C@H]3[C@H](c4cc(Cl)cc(Cl)c4)C3(Cl)Cl)ccc2Cl)c1` (relative stereo) [F201, trans-N-(3-Aminophenyl)-2-chloro-5-(2,2-dichloro-3-(3,5-dichlorophenyl)cyclopropane-1-carboxamido)benzamide] was tested, and the “YFM (Biological Results, rating)” value [1] was “A (80-100)”, the pest or weed control at 50 µg/cm2 [2] was 50 to 100% and the pest or weed control at 50 µg/cm2 [3] was 50 to 100%.

With `CNc1cccc(NC(=O)c2cc(NC(=O)[C@H]3[C@H](c4cc(Cl)cc(Cl)c4)C3(Cl)Cl)ccc2Cl)c1` (relative stereo) [F202, trans-2-Chloro-5-(2,2-dichloro-3-(3,5-dichlorophenyl)cyclopropane-1-carboxamido)-N-(3-(methylamino)phenyl)benzamide] the “YFM (Biological Results, rating)” value [1] was “A (80-100)”, the pest or weed control at 50 µg/cm2 [2] was 50 to 100% and the pest or weed control at 50 µg/cm2 [3] was 50 to 100%.

`O=C(Nc1ccc(I)cc1F)c1cc(NC(=O)[C@H]2[C@H](c3cc(Cl)cc(Cl)c3)C2(Cl)Cl)ccc1Cl` (relative stereo) [F203, trans-2-Chloro-5-(2,2-dichloro-3-(3,5-dichlorophenyl)cyclopropane-1-carboxamido)-N-(2-fluoro-4-iodophenyl)benzamide] was tested, and the “YFM (Biological Results, rating)” value [1] was “A (80-100)”, the pest or weed control at 50 µg/cm2 [2] was 50 to 100% and the pest or weed control at 50 µg/cm2 [3] was 50 to 100%.

In the case of `O=C(Nc1ccc(I)c(F)c1)c1cc(NC(=O)[C@H]2[C@H](c3cc(Cl)cc(Cl)c3)C2(Cl)Cl)ccc1Cl` (relative stereo) [F204, trans-2-Chloro-5-(2,2-dichloro-3-(3,5-dichlorophenyl)cyclopropane-1-carboxamido)-N-(3-fluoro-4-iodophenyl)benzamide], the “YFM (Biological Results, rating)” value [1] is reported as “A (80-100)”, the pest or weed control at 50 µg/cm2 [2] is reported as 50 to 100% and the pest or weed control at 50 µg/cm2 [3] is reported as 50 to 100%.

For `Cc1ccc(NC(=O)c2cc(NC(=O)[C@H]3[C@H](c4cc(Cl)cc(Cl)c4)C3(Cl)Cl)ccc2Cl)cc1N` (relative stereo) [F205, trans-N-(3-Amino-4-methylphenyl)-2-chloro-5-(2,2-dichloro-3-(3,5-dichlorophenyl)cyclopropane-1-carboxamido)benzamide], the “YFM (Biological Results, rating)” value [1] was “B (More than 0-Less than 80)”, the pest or weed control at 50 µg/cm2 [2] was 50 to 100% and the pest or weed control at 50 µg/cm2 [3] was 50 to 100%.

`CNc1ccc(NC(=O)c2cc(NC(=O)[C@H]3[C@H](c4cc(Cl)cc(Cl)c4)C3(Cl)Cl)ccc2Cl)cc1C` (relative stereo) [F206, trans-2-Chloro-5-(2,2-dichloro-3-(3,5-dichlorophenyl)cyclopropane-1-carboxamido)-N-(3-methyl-4-(methylamino)phenyl)benzamide] was tested, and the “YFM (Biological Results, rating)” value [1] was “A (80-100)”, the pest or weed control at 50 µg/cm2 [2] was 50 to 100% and the pest or weed control at 50 µg/cm2 [3] was 50 to 100%.

`O=C(Nc1ccc(F)cc1)c1cc(NC(=O)[C@H]2[C@H](c3cc(Cl)cc(Cl)c3)C2(Cl)Cl)cc(Cl)c1Cl` (relative stereo) [F216, trans-2,3-Dichloro-5-(2,2-dichloro-3-(3,5-dichlorophenyl)cyclopropane-1-carboxamido)-N-(4-fluorophenyl)benzamide] was tested, and the “YFM (Biological Results, rating)” value [1] was “B (More than 0-Less than 80)”, the pest or weed control at 50 µg/cm2 [2] was 50 to 100% and the pest or weed control at 50 µg/cm2 [3] was 50 to 100%.

With `O=C(Nc1ccc(-n2ccnn2)cc1)c1cc(NC(=O)[C@H]2[C@H](c3cc(Cl)cc(Cl)c3)C2(Cl)Cl)ccc1Cl` (relative stereo) [F217, trans-N-(4-(1H-1,2,3-Triazol-1-yl)phenyl)-2-chloro-5-(2,2-dichloro-3-(3,5-dichlorophenyl)cyclopropane-1-carboxamido)benzamide] the “YFM (Biological Results, rating)” value [1] was “B (More than 0-Less than 80)”, the pest or weed control at 50 µg/cm2 [2] was 50 to 100% and the pest or weed control at 50 µg/cm2 [3] was 50 to 100%.

`O=C(Nc1ncc(F)cn1)c1cc(NC(=O)[C@H]2[C@H](c3cc(Cl)cc(Cl)c3)C2(Cl)Cl)ccc1Cl` (relative stereo) [F222, trans-2-Chloro-5-(2,2-dichloro-3-(3,5-dichlorophenyl)cyclopropane-1-carboxamido)-N-(5-fluoropyrimidin-2-yl)benzamide] was tested, and the “YFM (Biological Results, rating)” value [1] was “A (80-100)”, the pest or weed control at 50 µg/cm2 [2] was 50 to 100% and the pest or weed control at 50 µg/cm2 [3] was 50 to 100%.

With `CNc1ccc(NC(=O)c2cc(NC(=O)[C@H]3[C@H](c4cc(Cl)c(Cl)c(Cl)c4)C3(Cl)Cl)ccc2Cl)c(C)c1` (relative stereo) [F223, trans-2-Chloro-5-(2,2-dichloro-3-(3,4,5-trichlorophenyl)cyclopropane-1-carboxamido)-N-(2-methyl-4-(methylamino)phenyl)benzamide] the “YFM (Biological Results, rating)” value [1] was “A (80-100)”, the pest or weed control at 50 µg/cm2 [2] was 50 to 100% and the pest or weed control at 50 µg/cm2 [3] was 50 to 100%.

With `CNc1ccc(NC(=O)c2cc(NC(=O)[C@H]3[C@H](c4ccc(F)c(Cl)c4)C3(Cl)Cl)ccc2Cl)c(C)c1` (relative stereo) [F224, trans-2-Chloro-5-(2,2-dichloro-3-(3-chloro-4-fluorophenyl)cyclopropane-1-carboxamido)-N-(2-methyl-4-(methylamino)phenyl)benzamide] the “YFM (Biological Results, rating)” value [1] was “A (80-100)”, the pest or weed control at 50 µg/cm2 [2] was 50 to 100% and the pest or weed control at 50 µg/cm2 [3] was 50 to 100%.

With `CNc1ccc(N(C)C(=O)c2cc(NC(=O)[C@H]3[C@H](c4cc(Cl)c(Cl)c(Cl)c4)C3(Cl)Cl)ccc2Cl)c(C)c1` (relative stereo) [F226, trans-2-Chloro-5-(2,2-dichloro-3-(3,4,5-trichlorophenyl)cyclopropane-1-carboxamido)-N-methyl-N-(2-methyl-4-(methylamino)phenyl)benzamide] the “YFM (Biological Results, rating)” value [1] was “A (80-100)”, the pest or weed control at 50 µg/cm2 [2] was 50 to 100% and the pest or weed control at 50 µg/cm2 [3] was 50 to 100%.

With `Cc1cc(N)ccc1NC(=O)c1cc(NC(=O)[C@H]2[C@H](c3cc(Cl)c(Cl)c(Cl)c3)C2(Cl)Cl)ccc1Cl` (relative stereo) [F227, trans-N-(4-Amino-2-methylphenyl)-2-chloro-5-(2,2-dichloro-3-(3,4,5-trichlorophenyl)cyclopropane-1-carboxamido)benzamide] the “YFM (Biological Results, rating)” value [1] was “A (80-100)”, the pest or weed control at 50 µg/cm2 [2] was 50 to 100% and the pest or weed control at 50 µg/cm2 [3] was 50 to 100%.
